Experimental data reported in US5164388A, “Heterocyclic peptide renin inhibitors” (Abbott Laboratories, priority 1991, dated 1992).

Each compound was assayed against T1, human renal renin (Homo sapiens, UniProt P00797) (assay: Inhibition of human renal renin in vitro (angiotensin I formed, radioimmunoassay)). Conditions: human angiotensinogen substrate, 37 degrees C., pH 6.0.
T1 construct: human renal renin, free from acid proteolytic activity; from tissue
T1 sequence (P00797 67-406): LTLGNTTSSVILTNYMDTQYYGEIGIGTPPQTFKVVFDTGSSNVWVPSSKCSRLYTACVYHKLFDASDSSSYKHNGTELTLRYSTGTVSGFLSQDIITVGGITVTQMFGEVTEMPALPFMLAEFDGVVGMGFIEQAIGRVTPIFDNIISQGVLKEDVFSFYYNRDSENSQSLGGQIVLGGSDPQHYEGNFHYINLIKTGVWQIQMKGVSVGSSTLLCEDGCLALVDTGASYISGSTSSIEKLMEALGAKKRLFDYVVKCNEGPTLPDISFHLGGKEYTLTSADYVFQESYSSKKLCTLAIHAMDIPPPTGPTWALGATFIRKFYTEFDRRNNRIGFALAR
Type: biochemical
Method: The novel compounds of the present invention are also useful for treating congestive heart failure. […] At the end of the incubation, the amount of angiotensin I formed is measured by radioimmunoassay and the molar concentration required to cause 50% inhibition, expressed as the IC50, is calculated.

IC50 | Structure (SMILES)
32 nM | CC(C)C[C@H](O)[C@H](O)[C@H](CC1CCCCC1)NC(=O)C(Cc1cscn1)N1CCN(C(=O)N2CCOCC2)[C@H](Cc2ccccc2)C1=O (stereo partly drawn) [Example 49B, 3-(4-Thiazolyl)-2-(3R-benzyl-4-N-morpholin-1-yl-carbonyl-2-keto-piperazin-1-yl)-propionic acid Amide of 2(S)-Amino-1-cyclohexyl-3(R),4(S)-dihydroxy-6-methylheptane]
230 nM | CC(C)C[C@H](O)[C@H](O)[C@H](CC1CCCCC1)NC(=O)[C@H](Cc1c[nH]cn1)N1CCN(C(=O)N2CCOCC2)[C@H](Cc2ccccc2)C1=O [Example 51, 3-(4-Imidazolyl)-2(S)-(3R-benzyl-4-N-morpholin-1-yl-carbonyl-2-keto-piperazin-1-yl) -propionic Acid Amide of 2(S)-Amino-1-cyclohexyl-3(R),4(S)-dihydroxy-6-methylheptane]
1.3 nM | CCCCNC(=O)[C@H](C[C@H](O)[C@H](CC1CCCCC1)NC(=O)C(Cc1cscn1)N1CCN(C(=O)N2CCOCC2)[C@H](Cc2ccccc2)C1=O)C(C)C (stereo partly drawn) [Example 129, 3-(3-Thiazolyl)-2-(3R-benzyl-4-N-morpholin-1-yl-carbonyl-2-keto-piperazin-1-yl)-propionic acid Amide of Butyl 5(S)-amino-6-cyclohexyl-4(S)-hydroxy-2(R)-isopropylhexan-amide]
13 nM | CC(C)C[C@H](O)[C@H](O)[C@H](CC1CCCCC1)NC(=O)[C@@H](Cc1c[nH]cn1)N1CCN(C(=O)OC(C)(C)C)[C@H](Cc2ccccc2)C1=O [Example 45, 3R-(4-Imidazolyl)-2(R)-(3R-benzyl-4-N-tert-butyloxycarbonyl-2-keto-piperazin-1-yl)-propionic acid Amide of 2(S)-Amino-1-cyclohexyl-3(R),4(S)-dihydroxy-6-methylheptane]
330 nM | CC(C)C[C@H](O)[C@H](O)[C@H](CC1CCCCC1)NC(=O)C(Cc1cscn1)N1CCN(Cc2ccccc2)[C@H](Cc2ccccc2)C1 (stereo partly drawn) [Example 36, 3-(4-Thiazolyl)-2-(R,S)-(3R-benzyl-4-N-benzylpiperazin-1-yl)-propionic acid Amide of 2(S)-Amino-1-cyclohexyl-3(R),4(S)-dihydroxy-6-methylheptane]
81 nM | CCCC[C@@H](C(=O)N[C@@H](CC1CCCCC1)[C@@H](O)[C@@H](O)CC(C)C)N1CCN(C(=O)N2CCN(C)CC2)[C@H](Cc2ccccc2)C1=O [Example 47, 2(S)-(3R-Benzyl-4-N-(4-(N'-methyl)-piperazin-1-yl-carbonyl)-2-keto-piperazin-1-yl)-hexanoic acid Amide of 2(S)-Amino-1-cyclohexyl-3(R),4(S)-dihydroxy-6-methylheptane]
4.5 nM | CC(C)C[C@H](O)[C@H](O)[C@H](CC1CCCCC1)NC(=O)C(Cc1cnc[nH]1)N1CCC(Cc2ccccc2)(NC(=O)OCc2ccccc2)C1=O (single isomer, unassigned) [Example 63C]
150 nM | CC(C)C[C@H](O)[C@H](O)[C@H](CC1CCCCC1)NC(=O)[C@H](Cc1cnc[nH]1)N1C[C@H](Cc2ccccc2)N(CC(C)C)C1=O [Example 118, (2S)-2-(Imidazol-4-ylmethyl)-2-(3-isobutyl-(4S)-phenylmethylimidazolidin-2-one-1-yl)acetic Acid Amide of (2)-Amino-1-cyclohexyl-3(R),4(S)-dihydroxy-6-methylheptane]
1.4 nM | CC(C)C[C@H](O)[C@H](O)[C@H](CC1CCCCC1)NC(=O)C(Cc1cnc[nH]1)N1CCC[C@@](Cc2ccccc2)(NC(=O)OCc2ccccc2)C1=O (single isomer, unassigned) [Example 87, (2R or 2S)-((3S)-(Benzyloxycarbonyl)amino)-3-phenylmethyl-2-oxo-1-piperidinyl)-3-(4-imidazolyl)propionic acid amide of (2S,3R,4S)-2-amino-1-cyclohexyl-3,4-dihydroxy-6-methylheptane]
5 nM | CCN1CC(C(O)C(CC2CCCCC2)NC(=O)C(Cc2nccn2C(=O)OC(C)(C)C)N2CCN(S(=O)(=O)N3CCN(C)CC3)C(Cc3ccccc3)C2=O)OC1=O [Example 142, 3-(3N-tert-butyloxycarbonyl-2-imidazolyl)-2-(3R-benzyl-4-N-(N-methylpiperazyl)-sulfonyl-2-keto-piperazin-1-yl)-propoionic acid Amide of (2'S,1'R,5S)-3-Ethyl-5-(1'-hydroxy-2'-amino-3'-cyclohexylpropyl)oxazolidin-2-one]
1.7 nM | CC(C)C[C@H](O)[C@H](O)[C@H](CC1CCCCC1)NC(=O)C(Cc1ncc[nH]1)N1CCN(S(=O)(=O)N2CCN(C)CC2)[C@H](Cc2ccccc2)C1=O (stereo partly shown) [Example 145]
6.2 nM | CCCCC(C(=O)N[C@@H](CC1CCCCC1)[C@@H](O)[C@@H](O)CC(C)C)N1CCN(C(=O)N2CCOCC2)[C@H](Cc2ccccc2)C1 (stereo partly drawn) [Example 38A, 2-(3R-Benzyl-4-N-(morpholin-1-yl-carbonyl)-piperazin)-1-yl-hexanoic acid Amide of 2(S)-Amino-1-cyclohexyl-3(R),4(S)-dihydroxy-6-methylheptane]
22 nM | CCCC[C@@H](C(=O)N[C@@H](CC1CCCCC1)[C@@H](O)[C@@H](O)CC(C)C)N1CCN(C(=O)N2CCOCC2)[C@H](Cc2ccccc2)C1=O [Example 50, 2(S)-(3R-Benzyl-4-N-morpholin-1-yl-carbonyl-2-keto-piperazin-1-yl)-hexanoicacid Amide of 2(S)-Amino-1-cyclohexyl-3(R),4(S)-dihydroxy-6-methylheptane]
1.4 nM | Cc1ccc(S(=O)(=O)N[C@]2(Cc3ccccc3)CCCN([C@@H](Cc3c[nH]cn3)C(=O)N[C@@H](CC3CCCCC3)[C@@H](O)[C@@H](O)CC(C)C)C2=O)cc1 [Example 156]
67 nM | CC(C)C[C@H](O)[C@H](O)[C@H](CC1CCCCC1)NC(=O)[C@H](Cc1cnc[nH]1)N1CC[C@H](Cc2ccccc2)C1=O [Example 73, (2S)-2-(Imidazol-4-ylmethyl)-2-((3S)-phenylmethyl-2-oxo-pyrrolidin-1-yl)acetic acid amide of (2S,3R,4S)-2-amino-1-cyclohexyl-3,4-dihydroxy-6-methylheptane]
300 nM | CCCC[C@@H](C(=O)OC)N(CC(=O)OCc1ccccc1)C[C@@H](Cc1ccccc1)NC(=O)OCc1ccccc1 [Example 22]
15 nM | CC(C)C[C@H](O)[C@H](O)[C@H](CC1CCCCC1)NC(=O)C(Cc1cnc[nH]1)N1CCC(Cc2ccccc2)(NC(=O)OCc2ccccc2)C1=O (single isomer, unassigned) [Example 63B]
1.7 nM | CCN1C[C@@H]([C@H](O)[C@H](CC2CCCCC2)NC(=O)C(Cc2ncc[nH]2)N2CCN(S(=O)(=O)N3CCN(C)CC3)[C@H](Cc3ccccc3)C2=O)OC1=O (stereo partly drawn) [Example 143, 3-(2-imidazolyl)-2-(3R-benzyl-4-N-(N-methylpiperazyl)-sulfonyl-2-keto-piperazin-1-yl)-propionic acid Amide of (2'S,1'R,5S)-3-Ethyl-5-(1'-hydroxy-2'-amino-3'-cyclohexylpropyl)oxazolidin-2-one]
62 nM | CCCC[C@H](NC[C@@H](Cc1ccccc1)NC(=O)OCc1ccccc1)C(=O)OC [Example 21]
650 nM | CC(C)C[C@H](O)[C@H](O)[C@H](CC1CCCCC1)NC(=O)[C@H](Cc1c[nH]cn1)N1C[C@H](Cc2ccccc2)NC1=O [Example 120, (2S)-2-(Imidazol-4-ylmethyl)-2-((4S)-phenylmethylimidazolidin-2-one-1-yl)acetic Acid Amide of (2S)-Amino-1-cyclohexyl-3(R),4(S)-dihydroxy-6-methylheptane]

Structure (SMILES) | IC50
CCCCC(C(=O)N[C@@H](CC1CCCCC1)[C@@H](O)[C@@H](O)CC(C)C)N1CCCC(Cc2ccccc2)C1 (stereo partly drawn) [Example 18, 2-(3-Benzylpiperidin-1-yl)-hexanoic acid Amide of 2(S)-Amino-1-cyclohexyl-3(R),4(S)-dihydroxy-6-methylheptane] | 920 nM
CCCC[C@@H](C(=O)N[C@@H](CC1CCCCC1)[C@@H](O)[C@@H](O)CC(C)C)N1CCN(C(=O)OC(C)(C)C)[C@H](Cc2ccccc2)C1=O [Example 44, 2(S)-(3R-Benzyl-4N-tert-butyloxycarbonyl-2-keto-piperazin-1-yl)-hexanoic acid Amide of 2(S)-Amino-1-cyclohexyl-3(R),4(S)-dihydroxy-6-methylheptane] | 15 nM
CCCC[C@@H](C(=O)N[C@@H](CC1CCCCC1)[C@@H](O)[C@@H](O)CC(C)C)N1CCCN(C(=O)OC(C)(C)C)[C@H](Cc2ccccc2)C1=O [Example 132, 2(S)-(3R-Benzyl-4N-tert-butyloxycarbonyl-2-keto-homopiperazin-1-yl)-hexanoic acid Amide of 2(S)-Amino-1-cyclohexyl-3(R),4(S)-dihydroxy-6-methylheptane] | 340 nM
Cc1ccc(S(=O)(=O)N2CCN(C(Cc3cscn3)C(=O)N[C@@H](CC3CCCCC3)[C@@H](O)[C@@H](O)CC(C)C)C(=O)[C@H]2Cc2ccccc2)cc1 (stereo partly drawn) [Example 131, 3-(3-Thiazolyl)-2-(3R-benzyl-4-N-p-toluene-sulfonyl-2-keto-piperazin-1-yl)-propionic acid Amide of 2(S)-amino-1-cyclohexyl-3(R),4(S)-dihydroxyl-6-methylheptane] | 3 nM
CCCCC(C(=O)N[C@@H](CC1CCCCC1)[C@@H](O)[C@@H](O)CC(C)C)N1CCN(C(=O)OC(C)(C)C)[C@@H](Cc2ccccc2)C1 (stereo partly drawn) [Example 34A, 2-(3S-Benzyl-4-N-tert-butyloxycarbonyl-piperazin-1-yl)-hexanoic acid Amide of 2(S)-Amino-1-cyclohexyl-3(R),4(S)-dihydroxy-6-methylheptane] | 100 nM
